This note sets out measurements from ChEMBL document CHEMBL1811803, “Preparation of allosamidin and demethylallosamidin photoaffinity probes and analysis of allosamidin-binding proteins in asthmatic mice” (Bioorg Med Chem, 2011).

Series [1] in a line: Inhibition of Trichoderma chitinase T1 using [4MU-(GlcNAc)3] as substrate.
For series [2], the target named is Chitinase-like protein 3 (Mus musculus) (UniProt O35744). Briefly: Binding affinity to Ym1 in IL-13-induced asthmatic A/J mouse BAL fluid after 1 hrs by photoaffinity labeling study.
For series [3] the target is unchanged. As to the kind of experiment: Binding affinity to recombinant His-tagged mouse Ym1 expressed in Escherichia coli after 1 hrs by photoaffinity labeling study.
Series [4] relates to Alpha-1-antiproteinase (Mus musculus). As to the kind of experiment: Binding affinity to alpha-1 antitrypsin in IL-13-induced asthmatic A/J mouse BAL fluid after 1 hrs by photoaffinity labeling study.
A short description of series [5]: Stability of the compound in 0.05 M HCl for 30 mins at room temperature. Type of series: physicochemical. The following applies: buffer, 0.5 h.
Series [6] can be described thus: Stability of the compound in 0.05 M NaOH for 30 mins at room temperature. Type of series: physicochemical. The settings on record: 0.5 h.

Each structure is given as a SMILES string. Activity calls are given as the source filed them. No cut-off for these calls is given here.

The term IC50 denotes the concentration needed to halve the response being measured. A low value points to higher potency.

Chitinase-like protein 3 (Mus musculus), sequence (O35744 whole entry): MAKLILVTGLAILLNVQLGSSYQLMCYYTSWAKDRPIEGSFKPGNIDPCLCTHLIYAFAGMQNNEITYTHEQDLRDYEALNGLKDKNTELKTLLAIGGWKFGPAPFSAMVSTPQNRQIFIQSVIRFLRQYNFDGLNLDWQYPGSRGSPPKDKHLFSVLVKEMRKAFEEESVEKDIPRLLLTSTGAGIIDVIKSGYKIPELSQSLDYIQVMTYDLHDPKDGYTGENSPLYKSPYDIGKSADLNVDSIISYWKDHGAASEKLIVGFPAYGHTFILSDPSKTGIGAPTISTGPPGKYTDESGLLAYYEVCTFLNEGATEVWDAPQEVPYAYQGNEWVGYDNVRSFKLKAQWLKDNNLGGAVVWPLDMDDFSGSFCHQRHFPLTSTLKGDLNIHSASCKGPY

Take `CC(=O)N[C@H]1[C@H](O[C@H]2[C@H](O)[C@H]3N=C(N(C)C)O[C@H]3[C@@H]2CO)O[C@H](CO)[C@@H](O[C@@H]2O[C@H](CO)[C@@H](O)[C@@H](O)[C@H]2NC(=O)CCSSCCNC(=O)C(CCCCNC(=O)CCCCC2SCC3NC(=O)NC32)NC(=O)c2ccc(N=[NH+][NH-])cc2)[C@H]1O` (some centres not stated): the concentration for half-maximal inhibition (IC50) in series [1] stood at 10.7 µM. The result in series [2], in series [3] and in series [4] was Active.

`CC(=O)N[C@H]1[C@H](O[C@H]2[C@H](O)[C@H]3N=C(N(C)C)O[C@H]3[C@@H]2CO)O[C@H](CO)[C@@H](O[C@@H]2O[C@H](CO)[C@@H](O)[C@@H](O)[C@H]2N)[C@H]1O` showed an IC50 in series [1] of 34.3 µM. That is a double-digit micromolar value.

Compound `CNC1=N[C@@H]2[C@@H](O)[C@H](O[C@@H]3O[C@H](CO)[C@@H](O[C@@H]4O[C@H](CO)[C@@H](O)[C@@H](O)[C@H]4NC(C)=O)[C@@H](O)[C@H]3NC(C)=O)[C@@H](CO)[C@@H]2O1` [DEMETHYLALLOSAMIDIN] gave an IC50 in series [1] of 10.3 µM.

In series [1], `CC(=O)N[C@H]1[C@H](O[C@H]2[C@H](O)[C@H]3N=C(N(C)C)O[C@H]3[C@@H]2CO)O[C@H](CO)[C@@H](O[C@@H]2O[C@H](CO)[C@@H](O)[C@@H](O)[C@H]2NC(=O)CCSSCCNC(=O)CCCCC2SCC3NC(=O)NC32)[C@H]1O` (some centres not stated) showed an IC50 of 3.6 µM. The Stability result in series [5] and in series [6] was “Stable” in each case. In turn, `CNC1=N[C@@H]2[C@@H](O)[C@H](O[C@@H]3O[C@H](CO)[C@@H](O[C@@H]4O[C@H](CO)[C@@H](O)[C@@H](O)[C@H]4NC(=O)CCSSCCNC(=O)CCCCC4SCC5NC(=O)NC54)[C@@H](O)[C@H]3NC(C)=O)[C@@H](CO)[C@@H]2O1` (some centres not stated) yielded an IC50 in series [1] of 7.9 µM. On the same count and under the same terms, the value for `CC(=O)N[C@H]1[C@H](O[C@H]2[C@@H](O)[C@@H](NC(C)=O)[C@H](O[C@H]3[C@H](O)[C@H]4N=C(N(C)C)O[C@H]4[C@@H]3CO)O[C@@H]2CO)O[C@H](CO)[C@@H](O)[C@H]1O` [ALLOSAMIDIN] was 5.4 µM; that for `CC(=O)N[C@H]1[C@H](O[C@H]2[C@@H](O)[C@@H](N)[C@H](O[C@H]3[C@H](O)[C@H]4N=C(N(C)C)O[C@H]4[C@@H]3CO)O[C@@H]2CO)O[C@H](CO)[C@@H](O)[C@H]1O` was 69.3 µM. Same read-out and setting: the value for `CNC1=N[C@@H]2[C@@H](O)[C@H](O[C@@H]3O[C@H](CO)[C@@H](O[C@@H]4O[C@H](CO)[C@@H](O)[C@@H](O)[C@H]4NC(C)=O)[C@@H](O)[C@H]3N)[C@@H](CO)[C@@H]2O1` was 308 µM; that for `CNC1=N[C@@H]2[C@@H](O)[C@H](O[C@@H]3O[C@H](CO)[C@@H](O[C@@H]4O[C@H](CO)[C@@H](O)[C@@H](O)[C@H]4NC(C)=O)[C@@H](O)[C@H]3NC(=O)CCSSCCNC(=O)C(CCCCNC(=O)CCCCC3SCC4NC(=O)NC43)NC(=O)c3ccc(N=[NH+][NH-])cc3)[C@@H](CO)[C@@H]2O1` (some centres not stated) was 155 µM. On to `CNC1=N[C@@H]2[C@@H](O)[C@H](O[C@@H]3O[C@H](CO)[C@@H](O[C@@H]4O[C@H](CO)[C@@H](O)[C@@H](O)[C@H]4NC(=O)CCSSCCNC(=O)C(CCCCNC(=O)CCCCC4SCC5NC(=O)NC54)NC(=O)c4ccc(N=[NH+][NH-])cc4)[C@@H](O)[C@H]3NC(C)=O)[C@@H](CO)[C@@H]2O1` (some centres not stated), for which half-maximal inhibition in series [1] (IC50) was put at 7.7 µM. The result in series [2], in series [3] and in series [4] was Active.

For the compound `CNC1=N[C@@H]2[C@@H](O)[C@H](O[C@@H]3O[C@H](CO)[C@@H](O[C@@H]4O[C@H](CO)[C@@H](O)[C@@H](O)[C@H]4NC(C)=O)[C@@H](O)[C@H]3NC(=O)CCSSCCNC(=O)CCCCC3SCC4NC(=O)NC43)[C@@H](CO)[C@@H]2O1` (some centres not stated), it took 49.7 µM to reach half-maximal inhibition in series [1] (IC50). In other words, the double-digit micromolar range. The compound `CC(=O)N[C@H]1[C@H](O[C@H]2[C@@H](O)[C@@H](NC(=O)CCSSCCNC(=O)CCCCC3SCC4NC(=O)NC43)[C@H](O[C@H]3[C@H](O)[C@H]4N=C(N(C)C)O[C@H]4[C@@H]3CO)O[C@@H]2CO)O[C@H](CO)[C@@H](O)[C@H]1O` (some centres not stated) gave a half-maximal inhibitory concentration (IC50) in series [1] of 50.3 µM. The IC50 values of the last two compounds are within 1.5-fold of each other. Still for that read-out and setting: then `CC(=O)N[C@H]1[C@H](O[C@H]2[C@@H](O)[C@@H](NC(=O)CCSSCCNC(=O)C(CCCCNC(=O)CCCCC3SCC4NC(=O)NC43)NC(=O)c3ccc(N=[NH+][NH-])cc3)[C@H](O[C@H]3[C@H](O)[C@H]4N=C(N(C)C)O[C@H]4[C@@H]3CO)O[C@@H]2CO)O[C@H](CO)[C@@H](O)[C@H]1O` (some centres not stated), with 125 µM. As for `CNC1=N[C@@H]2[C@@H](O)[C@H](O[C@@H]3O[C@H](CO)[C@@H](O[C@@H]4O[C@H](CO)[C@@H](O)[C@@H](O)[C@H]4N)[C@@H](O)[C@H]3NC(C)=O)[C@@H](CO)[C@@H]2O1`, 82.9 µM corresponded to half-maximal inhibition in series [1] (IC50).
